Our source for the MIC values is patent publication US8097628B2, “Compounds” (Glaxo Group Limited, priority 2008, dated 2012).

≈ marks a conversion by molar mass, not a printed value. Like-named read-outs stand apart in the source and are kept apart here. Some results are limits rather than exact numbers.

What is called MIC is the smallest concentration in the dilution series that meets the test's criterion for growth inhibition.

One assay deals with E. coli 120 AcrAB-. Put plainly: Antimicrobial Activity Assay, whole-cell broth microdilution (CLSI M7-A7). As to conditions: Escherichia coli, read-out: lowest MIC. The format is cell-based. The protocol: Whole-cell antimicrobial activity was determined by broth microdilution using the Clinical Laboratory Standards Institute (CLSI) recommended procedure, Document M7-A7, “Methods for Dilution Susceptibility Tests for Bacteria that Grow Aerobically”.
In addition, compounds were evaluated against a panel of Gram-negative organisms including Haemophilus influenzae, Moraxella catarrhalis, Escherichia coli,
The minimum inhibitory concentration (MIC) was determined as the lowest concentration of compound that inhibited visible growth. A mirror reader was used to assist in determining the MIC endpoint.
In general terms: Broth dilution looks for growth in wells or tubes with falling amounts of substance.

For assay [1], the system named is Mycobacterium tuberculosis H37Rv. The assay can be described thus: Mycobacterium tuberculosis H37Rv Inhibition Assay. It is filed as cell-based.
[2] abbreviates: ATCC 25618 / H37Rv, H37Rv strain (ATCC25618), Middlebrook 7H9, resazurin fluorescence, read-out: MtB MIC.

For `Cc1cc(CNC2CCN(C[C@@H]3Cn4c(=O)ccc5ccc(=O)n3c54)CC2)cnc1C#N` [Example 32, 5-{[(1-{[(1R)-4,9-dioxo-1,2-dihydro-4H,9H-imidazo[1,2,3-ij]-1,8-naphthyridin-1-yl]methyl}-4-piperidinyl)amino]methyl}-3-methyl-2-pyridinecarbonitrile], the results for the MIC (in the assay on E. coli 120 AcrAB-; in assay [1] (setting [2])) were 4 µg/mL (≈ 9.29 µM) and 0.538 µg/mL (≈ 1.25 µM), respectively.

As for `Cc1cc(CNC2CCN(CC3Cn4c(=O)ccc5ncc(=O)n3c54)CC2)cnc1C` (centres unmarked) [Example 14, 2-[(4-{[(5,6-dimethyl-3-pyridinyl)methyl]amino}-1-piperidinyl)methyl]-1,2-dihydro-3H,8H-2a,5,8a-triazaacenaphthylene-3,8-dione], the MIC in assay [1] (setting [2]) was 2.1 µg/mL (≈ 5 µM); in assay [1] (H37Rv inhibition assay, read-out: MIC value) it was over 1 µg/mL.

In the case of `O=c1ccc2ncc(=O)n3c2n1CC3CN1CCC(NCc2ccc(C(F)(F)F)cc2)CC1` (centres unmarked) [Example 28, 2-{[4-({[4-(trifluoromethyl)phenyl]methyl}amino)-1-piperidinyl]methyl}-1,2-dihydro-3H,8H-2a,5,8a-triazaacenaphthylene-3,8-dione], the MIC in assay [1] (setting [2]) was 0.144 µg/mL (≈ 0.313 µM).
